Measurements from US20130261077A1 (priority 2012, published 2013).

These molecules were tested against T1, FimH-CRD (Escherichia coli, UniProt P08191) (assay: Competitive binding assay by fluorescence polarization, assay 2 (compounds prepared by robotics, plates frozen and thawed)).
T1 construct: The first 177 amino acids of the FimH protein; thrombin tag (printed as 'fusion protein with thrombin') (cleaved yes); made in house; host or cells: bacteria (pET21b plasmid)
T1 sequence (P08191 22-177): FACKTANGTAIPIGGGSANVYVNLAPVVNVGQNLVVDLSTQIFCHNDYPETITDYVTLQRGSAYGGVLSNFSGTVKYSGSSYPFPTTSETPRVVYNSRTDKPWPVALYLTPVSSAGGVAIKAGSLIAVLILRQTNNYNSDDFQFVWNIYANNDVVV
Method in brief: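 Fluorescence-polarization competition of 5 nM Alexa 647 mannoside probe with 60 nM FimH-CRD (first 177 residues, tag removed) in Tris-Cl pH 7.0, NaCl, EDTA, β-ME, BSA, 2.5% DMSO, 5 h at RT in the dark. Twelve-point 3-fold titrations (0.4 nM–75 μM) in duplicate; Kd interpolated from displacement curves.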
Molecule `OC[C@H]1OC(c2ccc(OCCCCF)cc2)[C@@H](O)[C@@H](O)[C@@H]1O` (some centres unmarked) [Compound 234] has a Kd of 11.4 ± 4.5 nM.
In the case of `O=C(COc1ccc(C2O[C@H](CO)[C@@H](O)[C@H](O)[C@@H]2O)cc1)C1CC1` (some centres unmarked) [Compound 235], the Kd is reported as 14.1 ± 0.3 nM.
Work on `OC[C@H]1OC(c2ccc(OCC3CCOCC3)cc2)[C@@H](O)[C@@H](O)[C@@H]1O` (some centres unmarked) [Compound 236] yielded a Kd of 11.5 ± 4.6 nM.
`OC[C@H]1OC(c2ccc(OCc3ccc(F)cc3)cc2)[C@@H](O)[C@@H](O)[C@@H]1O` (some centres unmarked) [Compound 237] was tested, and the Kd was 7.9 ± 1.6 nM.
In the case of `OC[C@H]1OC(c2ccc(OCCc3cccc(F)c3)cc2)[C@@H](O)[C@@H](O)[C@@H]1O` (some centres unmarked) [Compound 238], the Kd is reported as 9.7 nM.
In the case of `COc1ccc(CCOc2ccc(C3O[C@H](CO)[C@@H](O)[C@H](O)[C@@H]3O)cc2)cc1` (some centres unmarked) [Compound 239], the Kd is reported as 7.7 ± 0.05 nM.
Work on `OC[C@H]1OC(c2ccc(OCc3cccc4cccnc34)cc2)[C@@H](O)[C@@H](O)[C@@H]1O` (some centres unmarked) [Compound 240] yielded a Kd of 7.6 ± 0.9 nM.
`CC(C)(C)c1ccc(COc2ccc(C3O[C@H](CO)[C@@H](O)[C@H](O)[C@@H]3O)cc2)cc1` (some centres unmarked) [Compound 241] was tested, and the Kd was 10.2 ± 0.8 nM.
For `COc1ccccc1NC(=O)COc1ccc(C2O[C@H](CO)[C@@H](O)[C@H](O)[C@@H]2O)cc1` (some centres unmarked) [Compound 242], the Kd was 21.5 ± 3.9 nM.
Molecule `COC(=O)CCCOc1ccc(C2O[C@H](CO)[C@@H](O)[C@H](O)[C@@H]2O)cc1` (some centres unmarked) [Compound 243] has a Kd of 5.8 nM.
For `OC[C@H]1OC(c2ccc(OCc3ccc4ccccc4c3)cc2)[C@@H](O)[C@@H](O)[C@@H]1O` (some centres unmarked) [Compound 244], the Kd was 23.3 ± 1.1 nM.
Molecule `OC[C@H]1OC(c2ccc(OCc3ccccc3)cc2)[C@@H](O)[C@@H](O)[C@@H]1O` (some centres unmarked) [Compound 245] has a Kd of 22.8 ± 2.4 nM.
With `COC(=O)c1cccc(COc2ccc(C3O[C@H](CO)[C@@H](O)[C@H](O)[C@@H]3O)cc2)c1` (some centres unmarked) [Compound 246] the Kd was 23.6 ± 5.5 nM.
Molecule `O=C(O)c1cccc(COc2ccc(C3O[C@H](CO)[C@@H](O)[C@H](O)[C@@H]3O)cc2)c1` (some centres unmarked) [Compound 247] has a Kd of 32 ± 5.1 nM.
Molecule `CNC(=O)c1ccc(COc2ccc(C3O[C@H](CO)[C@@H](O)[C@H](O)[C@@H]3O)cc2)cc1` (some centres unmarked) [Compound 249] has a Kd of 19.6 ± 10.2 nM.
Molecule `OC[C@H]1OC(c2ccc(OCc3cc(Cl)cc(Cl)c3)cc2)[C@@H](O)[C@@H](O)[C@@H]1O` (some centres unmarked) [Compound 250] has a Kd of 40.6 ± 23.4 nM.
In the case of `OC[C@H]1OC(c2ccc(OCc3cccc4nonc34)cc2)[C@@H](O)[C@@H](O)[C@@H]1O` (some centres unmarked) [Compound 251], the Kd is reported as 29.9 ± 13.9 nM.
`OC[C@H]1O[C@H](c2cccc(Oc3ccncc3)c2)[C@@H](O)[C@@H](O)[C@@H]1O` [Compound 252, (2R,3S,4R,5S,6R)-2-(hydroxymethyl)-6-[3-(4-pyridyloxy)phenyl]tetrahydropyran-3,4,5-triol] was tested, and the Kd was 13.2 ± 2.2 nM.
In the case of `OC[C@H]1O[C@H](c2cccc(Oc3nc4ccccc4s3)c2)[C@@H](O)[C@@H](O)[C@@H]1O` [Compound 253, (2R,3S,4R,5S,6R)-2-[3-(1,3-benzothiazol-2-yloxy)phenyl]-6-(hydroxymethyl)tetrahydropyran-3,4,5-triol], the Kd is reported as less than 5 nM.
With `OC[C@H]1OC(c2cccc(Oc3ccnc4ccccc34)c2)[C@@H](O)[C@@H](O)[C@@H]1O` (some centres unmarked) [Compound 254] the Kd was 7.9 nM.
`OC[C@H]1O[C@H](c2cccc(Oc3ncccn3)c2)[C@@H](O)[C@@H](O)[C@@H]1O` [Compound 256, (2R,3S,4R,5S,6R)-2-(hydroxymethyl)-6-(3-pyrimidin-2-yloxyphenyl)tetrahydropyran-3,4,5-triol] showed a Kd of 67.6 ± 21.8 nM.
With `O=[N+]([O-])c1ccc(Oc2cccc([C@H]3O[C@H](CO)[C@@H](O)[C@H](O)[C@@H]3O)c2)cn1` [Compound 257, (2R,3S,4R,5S,6R)-2-(hydroxymethyl)-6-[3-[(6-nitro-3-pyridyl)oxy]phenyl]tetrahydropyran-3,4,5-triol] the Kd was 19.2 ± 6.3 nM.
In the case of `Nc1ccc(Oc2cccc([C@H]3O[C@H](CO)[C@@H](O)[C@H](O)[C@@H]3O)c2)cn1` [Compound 258, (2R,3S,4R,5S,6R)-2-[3-[(6-amino-3-pyridyl)oxy]phenyl]-6-(hydroxymethyl)tetrahydropyran-3,4,5-triol], the Kd is reported as 31.9 ± 6.3 nM.
